Results: PubChem BioAssay AID1918931 (Molecular Pharmacology Branch, DTP, NCI, 2023)

Tested on: 138582-337-R-J1-PDC complex spheroid viability
Assay: Anticancer human tumor 138582-337-R-J1-PDC patient-derived Merkel cell tumor cell line growth inhibition
Settings: for IC50: curve of first compound; for viability, T/C: stronger effect = lower value
Procedure, shortened: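 Multicellular complex spheroids of tumor cells with human endothelial cells (HUVEC) and mesenchymal stem cells; the LSD1 inhibitor iadademstat was combined with standard-of-care or investigational agents. Top concentration at or near clinical Cmax, half-log dilutions; final DMSO ≤0.25%.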

[1] = second compound 0.1 µM, first compound 0.0316 µM
[2] = second compound 0.1 µM, first compound 0.1 µM
[3] = second compound 0.1 µM, first compound 0.316 µM
[4] = second compound 0.1 µM, first compound 1 µM
[5] = second compound 0.1 µM, first compound 3.16 µM
[6] = second compound 0.1 µM, first compound 10 µM
[7] = second compound 0.316 µM, first compound 0.0316 µM
[8] = second compound 0.316 µM, first compound 0.1 µM
[9] = second compound 0.316 µM, first compound 0.316 µM
[10] = second compound 0.316 µM, first compound 1 µM
[11] = second compound 0.316 µM, first compound 3.16 µM
[12] = second compound 0.316 µM, first compound 10 µM
[13] = second compound 1 µM, first compound 0.0316 µM
[14] = second compound 1 µM, first compound 0.1 µM
[15] = second compound 1 µM, first compound 0.316 µM
[16] = second compound 1 µM, first compound 1 µM
[17] = second compound 1 µM, first compound 3.16 µM
[18] = second compound 1 µM, first compound 10 µM
[19] = second compound 3.16 µM, first compound 0.0316 µM
[20] = second compound 3.16 µM, first compound 0.1 µM
[21] = second compound 3.16 µM, first compound 0.316 µM
[22] = second compound 3.16 µM, first compound 1 µM
[23] = second compound 3.16 µM, first compound 3.16 µM
[24] = second compound 3.16 µM, first compound 10 µM
[25] = second compound 10 µM, first compound 0.0316 µM
[26] = second compound 10 µM, first compound 0.1 µM
[27] = second compound 10 µM, first compound 0.316 µM
[28] = second compound 10 µM, first compound 1 µM
[29] = second compound 10 µM, first compound 3.16 µM
[30] = second compound 10 µM, first compound 10 µM
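Note: spheroids exposed to agents for 7 days.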
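Throughout, for viability, T/C: 100% = DMSO vehicle control viability.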

SMILES | IC50 (second compound 0.1 µM) [nM] | IC50 (second compound 0.316 µM) [nM] | IC50 (second compound 1 µM) [nM] | IC50 (second compound 3.16 µM) [nM] | IC50 (second compound 10 µM) [nM] | viability, T/C [1] [%] | viability, T/C [2] [%] | viability, T/C [3] [%] | viability, T/C [4] [%] | viability, T/C [5] [%] | viability, T/C [6] [%] | viability, T/C [7] [%] | viability, T/C [8] [%] | viability, T/C [9] [%] | viability, T/C [10] [%] | viability, T/C [11] [%] | viability, T/C [12] [%] | viability, T/C [13] [%] | viability, T/C [14] [%] | viability, T/C [15] [%] | also measured
CC(C)c1c(-c2ccccc2)nc2c(C#N)c[nH]n2c1=O + NC1CCC(NC2CC2c2ccccc2)CC1 | > 10000 | > 10000 | > 10000 | > 10000 | > 10000 | 104 | 103 | 93.8 | 92.3 | 86 | 89.7 | 94.2 | 102 | 94.8 | 82 | 97.1 | 102 | 86.3 | 93.9 | 85.7 | viability, T/C [16]: 92%; viability, T/C [17]: 90%; viability, T/C [18]: 106%; viability, T/C [19]: 90%; viability, T/C [20]: 86.5%; viability, T/C [21]: 97.3%; viability, T/C [22]: 79.5%; viability, T/C [23]: 81.5%; viability, T/C [24]: 83.5%; viability, T/C [25]: 96.7%; viability, T/C [26]: 82.7%; viability, T/C [27]: 73.4%; viability, T/C [28]: 88.2%; viability, T/C [29]: 80.4%; viability, T/C [30]: 79.7%
COc1ccc([C@@H](O)c2cc(-c3ncnc4cc(N5CCOCC5)ccc34)c(F)cc2Cl)nn1 + NC1CCC(NC2CC2c2ccccc2)CC1 | 1560 | 2570 | 1480 | 1800 | 1410 | 80.6 | 96.2 | 76.5 | 54.6 | 44.9 | 32.9 | 76.4 | 77.3 | 62.6 | 63.1 | 46.8 | 33.3 | 83.1 | 74.5 | 71.7 | viability, T/C [16]: 50.3%; viability, T/C [17]: 44.7%; viability, T/C [18]: 33.7%; viability, T/C [19]: 81.1%; viability, T/C [20]: 90.1%; viability, T/C [21]: 69.1%; viability, T/C [22]: 61.2%; viability, T/C [23]: 40.7%; viability, T/C [24]: 24.2%; viability, T/C [25]: 87.2%; viability, T/C [26]: 72.5%; viability, T/C [27]: 75.9%; viability, T/C [28]: 47.1%; viability, T/C [29]: 43.4%; viability, T/C [30]: 14.2%
